# System: 556581-035-R-J1-PDC complex spheroid viability
# Assay: Anticancer human tumor 556581-035-R-J1-PDC patient-derived ovarian carcinoma cell line growth inhibition
# Conditions: for IC50: curve of first compound; for viability, T/C: stronger effect = lower value
# Procedure, shortened: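 Drug combinations with the LSD1 inhibitor iadademstat tested on tumor cells co-cultured as spheroids with endothelial cells and mesenchymal stem cells. Concentrations descended in half-log increments from clinical Cmax or 10 microM.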
# [1] = second compound 0.1 µM, first compound 0.000316 µM
# [2] = second compound 0.1 µM, first compound 0.001 µM
# [3] = second compound 0.1 µM, first compound 0.00316 µM
# [4] = second compound 0.1 µM, first compound 0.01 µM
# [5] = second compound 0.1 µM, first compound 0.0316 µM
# [6] = second compound 0.1 µM, first compound 0.1 µM
# [7] = second compound 0.316 µM, first compound 0.000316 µM
# [8] = second compound 0.316 µM, first compound 0.001 µM
# [9] = second compound 0.316 µM, first compound 0.00316 µM
# [10] = second compound 0.316 µM, first compound 0.01 µM
# [11] = second compound 0.316 µM, first compound 0.0316 µM
# [12] = second compound 0.316 µM, first compound 0.1 µM
# [13] = second compound 1 µM, first compound 0.000316 µM
# [14] = second compound 1 µM, first compound 0.001 µM
# [15] = second compound 1 µM, first compound 0.00316 µM
# [16] = second compound 1 µM, first compound 0.01 µM
# [17] = second compound 1 µM, first compound 0.0316 µM
# [18] = second compound 1 µM, first compound 0.1 µM
# [19] = second compound 3.16 µM, first compound 0.000316 µM
# [20] = second compound 3.16 µM, first compound 0.001 µM
# [21] = second compound 3.16 µM, first compound 0.00316 µM
# [22] = second compound 3.16 µM, first compound 0.01 µM
# [23] = second compound 3.16 µM, first compound 0.0316 µM
# [24] = second compound 3.16 µM, first compound 0.1 µM
# [25] = second compound 10 µM, first compound 0.000316 µM
# [26] = second compound 10 µM, first compound 0.001 µM
# [27] = second compound 10 µM, first compound 0.00316 µM
# [28] = second compound 10 µM, first compound 0.01 µM
# [29] = second compound 10 µM, first compound 0.0316 µM
# [30] = second compound 10 µM, first compound 0.1 µM
# [31] = second compound 0.1 µM, first compound 0.00949 µM
# [32] = second compound 0.1 µM, first compound 0.03 µM
# [33] = second compound 0.1 µM, first compound 0.0949 µM
# [34] = second compound 0.1 µM, first compound 0.3 µM
# [35] = second compound 0.1 µM, first compound 0.949 µM
# [36] = second compound 0.1 µM, first compound 3 µM
# [37] = second compound 0.316 µM, first compound 0.00949 µM
# [38] = second compound 0.316 µM, first compound 0.03 µM
# [39] = second compound 0.316 µM, first compound 0.0949 µM
# [40] = second compound 0.316 µM, first compound 0.3 µM
# [41] = second compound 0.316 µM, first compound 0.949 µM
# [42] = second compound 0.316 µM, first compound 3 µM
# [43] = second compound 1 µM, first compound 0.00949 µM
# [44] = second compound 1 µM, first compound 0.03 µM
# [45] = second compound 1 µM, first compound 0.0949 µM
# [46] = second compound 1 µM, first compound 0.3 µM
# [47] = second compound 1 µM, first compound 0.949 µM
# [48] = second compound 1 µM, first compound 3 µM
# [49] = second compound 3.16 µM, first compound 0.00949 µM
# [50] = second compound 3.16 µM, first compound 0.03 µM
# [51] = second compound 3.16 µM, first compound 0.0949 µM
# [52] = second compound 3.16 µM, first compound 0.3 µM
# [53] = second compound 3.16 µM, first compound 0.949 µM
# [54] = second compound 3.16 µM, first compound 3 µM
# [55] = second compound 10 µM, first compound 0.00949 µM
# [56] = second compound 10 µM, first compound 0.03 µM
# [57] = second compound 10 µM, first compound 0.0949 µM
# [58] = second compound 10 µM, first compound 0.3 µM
# [59] = second compound 10 µM, first compound 0.949 µM
# [60] = second compound 10 µM, first compound 3 µM
# 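Further: spheroids exposed to agents for seven days.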
# 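Wherever viability, T/C is given: 100% = DMSO vehicle control wells.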
compound,measurement,setting,value
CC(C)CC(NC(=O)C(Cc1ccccc1)NC(=O)c1cnccn1)B(O)O (stereo not given) + NC1CCC(NC2CC2c2ccccc2)CC1,IC50,second compound 0.1 µM,< 0.316 nM
same,IC50,second compound 0.316 µM,< 0.316 nM
same,IC50,second compound 1 µM,< 0.316 nM
same,IC50,second compound 3.16 µM,< 0.316 nM
same,IC50,second compound 10 µM,< 0.316 nM
same,"viability, T/C",[1],7.87%
same,"viability, T/C",[2],0.11%
same,"viability, T/C",[3],0.13%
same,"viability, T/C",[4],0.13%
same,"viability, T/C",[5],0.08%
same,"viability, T/C",[6],0.24%
same,"viability, T/C",[7],7.18%
same,"viability, T/C",[8],0.45%
same,"viability, T/C",[9],0.63%
same,"viability, T/C",[10],0.39%
same,"viability, T/C",[11],0.44%
same,"viability, T/C",[12],1.89%
same,"viability, T/C",[13],11.7%
same,"viability, T/C",[14],0.44%
same,"viability, T/C",[15],0.91%
same,"viability, T/C",[16],0.17%
same,"viability, T/C",[17],0.08%
same,"viability, T/C",[18],0.43%
same,"viability, T/C",[19],7.91%
same,"viability, T/C",[20],0.49%
same,"viability, T/C",[21],0.13%
same,"viability, T/C",[22],0.07%
same,"viability, T/C",[23],0.75%
same,"viability, T/C",[24],0.19%
same,"viability, T/C",[25],5.64%
same,"viability, T/C",[26],0.22%
same,"viability, T/C",[27],0.25%
same,"viability, T/C",[28],0.49%
same,"viability, T/C",[29],0.46%
same,"viability, T/C",[30],0.24%
CC(C)CC(NC(=O)CNC(=O)c1cc(Cl)ccc1Cl)B1OC(=O)CC(CC(=O)O)(C(=O)O)O1 (stereo not given) + NC1CCC(NC2CC2c2ccccc2)CC1,IC50,second compound 0.1 µM,4.01 nM
same,IC50,second compound 0.316 µM,4.35 nM
same,IC50,second compound 1 µM,4.48 nM
same,IC50,second compound 3.16 µM,4.6 nM
same,IC50,second compound 10 µM,3.25 nM
same,"viability, T/C",[1],90.7%
same,"viability, T/C",[2],99.5%
same,"viability, T/C",[3],62.3%
same,"viability, T/C",[4],3.38%
same,"viability, T/C",[5],0.24%
same,"viability, T/C",[6],0.3%
same,"viability, T/C",[7],95.5%
same,"viability, T/C",[8],93.4%
same,"viability, T/C",[9],67.6%
same,"viability, T/C",[10],4.37%
same,"viability, T/C",[11],0.84%
same,"viability, T/C",[12],0.84%
same,"viability, T/C",[13],86.2%
same,"viability, T/C",[14],88%
same,"viability, T/C",[15],69.7%
same,"viability, T/C",[16],4.47%
same,"viability, T/C",[17],0.33%
same,"viability, T/C",[18],0.17%
same,"viability, T/C",[19],91.3%
same,"viability, T/C",[20],86%
same,"viability, T/C",[21],72.4%
same,"viability, T/C",[22],3.59%
same,"viability, T/C",[23],0.33%
same,"viability, T/C",[24],0.6%
same,"viability, T/C",[25],72.3%
same,"viability, T/C",[26],90.1%
same,"viability, T/C",[27],51.2%
same,"viability, T/C",[28],2.53%
same,"viability, T/C",[29],0.48%
same,"viability, T/C",[30],0.7%
Nc1ccccc1NC(=O)c1ccc(CNC(=O)OCc2cccnc2)cc1 + NC1CCC(NC2CC2c2ccccc2)CC1,IC50,second compound 0.1 µM,124 nM
same,IC50,second compound 0.316 µM,103 nM
same,IC50,second compound 1 µM,111 nM
same,IC50,second compound 3.16 µM,69.9 nM
same,IC50,second compound 10 µM,32.2 nM
same,"viability, T/C",[31],82.9%
same,"viability, T/C",[32],74.9%
same,"viability, T/C",[33],56.4%
same,"viability, T/C",[34],28.5%
same,"viability, T/C",[35],17.6%
same,"viability, T/C",[36],1.21%
same,"viability, T/C",[37],77.4%
same,"viability, T/C",[38],66.9%
same,"viability, T/C",[39],53.4%
same,"viability, T/C",[40],28.7%
same,"viability, T/C",[41],15.9%
same,"viability, T/C",[42],1.67%
same,"viability, T/C",[43],69%
same,"viability, T/C",[44],71.6%
same,"viability, T/C",[45],49.6%
same,"viability, T/C",[46],32.1%
same,"viability, T/C",[47],17.1%
same,"viability, T/C",[48],0.88%
same,"viability, T/C",[49],79.5%
same,"viability, T/C",[50],61.3%
same,"viability, T/C",[51],47.6%
same,"viability, T/C",[52],26.4%
same,"viability, T/C",[53],18.2%
same,"viability, T/C",[54],1.11%
same,"viability, T/C",[55],74%
same,"viability, T/C",[56],49%
same,"viability, T/C",[57],35.8%
same,"viability, T/C",[58],17%
same,"viability, T/C",[59],9.24%
same,"viability, T/C",[60],0.63%
O=C(C=Cc1cccc(S(=O)(=O)Nc2ccccc2)c1)NO + NC1CCC(NC2CC2c2ccccc2)CC1,IC50,second compound 0.1 µM,108 nM
same,IC50,second compound 0.316 µM,87 nM
same,IC50,second compound 1 µM,76.3 nM
same,IC50,second compound 3.16 µM,92.8 nM
same,IC50,second compound 10 µM,39.6 nM
same,"viability, T/C",[31],85.6%
same,"viability, T/C",[32],78.4%
same,"viability, T/C",[33],51.1%
same,"viability, T/C",[34],26.1%
same,"viability, T/C",[35],1.81%
same,"viability, T/C",[36],0.24%
same,"viability, T/C",[37],87.7%
same,"viability, T/C",[38],74.3%
same,"viability, T/C",[39],42.9%
same,"viability, T/C",[40],31.7%
same,"viability, T/C",[41],3.05%
same,"viability, T/C",[42],0.34%
same,"viability, T/C",[43],97.2%
same,"viability, T/C",[44],65.7%
same,"viability, T/C",[45],50.4%
same,"viability, T/C",[46],24.6%
same,"viability, T/C",[47],2.56%
same,"viability, T/C",[48],0.21%
same,"viability, T/C",[49],77.9%
same,"viability, T/C",[50],73.1%
same,"viability, T/C",[51],47.9%
same,"viability, T/C",[52],22%
same,"viability, T/C",[53],2.44%
same,"viability, T/C",[54],0.16%
same,"viability, T/C",[55],74.2%
same,"viability, T/C",[56],51.7%
same,"viability, T/C",[57],37.6%
same,"viability, T/C",[58],23%
same,"viability, T/C",[59],1.28%
same,"viability, T/C",[60],0.28%
O=C(c1cc(Cc2n[nH]c(=O)c3ccccc23)ccc1F)N1CCN(C(=O)C2CC2)CC1 + NC1CCC(NC2CC2c2ccccc2)CC1,IC50,second compound 0.1 µM,> 10000 nM
same,IC50,second compound 0.316 µM,> 10000 nM
same,IC50,second compound 1 µM,> 10000 nM
same,IC50,second compound 3.16 µM,> 10000 nM
same,IC50,second compound 10 µM,> 10000 nM
same,"viability, T/C",[5],85.8%
same,"viability, T/C",[6],93.2%
same,"viability, T/C","second compound 0.1 µM, first compound 0.316 µM",91.7%
same,"viability, T/C","second compound 0.1 µM, first compound 1 µM",85.3%
same,"viability, T/C","second compound 0.1 µM, first compound 3.16 µM",83.9%
same,"viability, T/C","second compound 0.1 µM, first compound 10 µM",65%
same,"viability, T/C",[11],87.2%
same,"viability, T/C",[12],93.7%
same,"viability, T/C","second compound 0.316 µM, first compound 0.316 µM",90.7%
same,"viability, T/C","second compound 0.316 µM, first compound 1 µM",86%
same,"viability, T/C","second compound 0.316 µM, first compound 3.16 µM",62.8%
same,"viability, T/C","second compound 0.316 µM, first compound 10 µM",65.8%
same,"viability, T/C",[17],77.4%
same,"viability, T/C",[18],84.4%
same,"viability, T/C","second compound 1 µM, first compound 0.316 µM",83.6%
same,"viability, T/C","second compound 1 µM, first compound 1 µM",78.6%
same,"viability, T/C","second compound 1 µM, first compound 3.16 µM",72.6%
same,"viability, T/C","second compound 1 µM, first compound 10 µM",61.3%
same,"viability, T/C",[23],74.5%
same,"viability, T/C",[24],73.9%
same,"viability, T/C","second compound 3.16 µM, first compound 0.316 µM",77.6%
same,"viability, T/C","second compound 3.16 µM, first compound 1 µM",66.3%
same,"viability, T/C","second compound 3.16 µM, first compound 3.16 µM",58.1%
same,"viability, T/C","second compound 3.16 µM, first compound 10 µM",66.5%
same,"viability, T/C",[29],74.2%
same,"viability, T/C",[30],77.5%
same,"viability, T/C","second compound 10 µM, first compound 0.316 µM",69%
same,"viability, T/C","second compound 10 µM, first compound 1 µM",69.4%
same,"viability, T/C","second compound 10 µM, first compound 3.16 µM",58.7%
same,"viability, T/C","second compound 10 µM, first compound 10 µM",55.9%
